Assay results reported in publication PMC6862253, “Synthesis and Evaluation of Anticancer Activity of New 4-Acyloxy Derivatives of Robustic Acid” (International Journal of Molecular Sciences, 2019).
Values belong to the compound of their own block, whether it stands above or below them.

Experiments:
[1] = test system: human leukemic cells HL-60; experiment: MTS anti-proliferative assay, HL-60; assay type: cell-based; settings: mean ± SD
Description: (§1) The MTS (3-(4,5-dimethylthiazole-2-yl)-5-(3-carboxymethoxyphenyl)-2-(4-sulfophenyl)-2H- tetrazolium) (Promega, Madison, WI, USA) assay was used to determine the IC50 value for all compounds, according to [26]. We used a panel of five human carcinoma cell lines and two normal cells including HL-60, A549, SMMC-7721, HepG2, Hela, LO2 and BEAS-2B. Cells were seeded in 96-well plates at a density of 3 × 10^3–1.5 × 10^4 cells/well in 100 μL medium (DMEM or RMPI1640) and incubated for 12–24 h at 37 °C. Subsequently, cells were exposed to drugs in an additional 100 μL medium and were further incubated at 37 °C for 48 h. In brief, 100 μL MTS reagent supplement with 100 μL medium was added directly to the wells and cells were incubated at 37 °C for a minimum of 2 h. Colorimetric measurements were recorded at 492 nm. Background absorbance was corrected using triplicate sets of wells[…] containing medium only (no cells), and MTS reagent was added per experimental well. Each experiment was performed at least three times, and values in results are represented as mean ± SD.

[2] = test system: human non-small cell lung carcinoma cells A-549; experiment: MTS anti-proliferative assay, A-549; assay type: cell-based; settings: mean ± SD
Description: as §1

[3] = test system: human hepatic carcinoma cells SMMC-7721; experiment: MTS anti-proliferative assay, SMMC-7721; assay type: cell-based; settings: mean ± SD
Description: as §1

[4] = test system: human hepatocellular carcinoma cells HepG2; experiment: MTS anti-proliferative assay, HepG2; assay type: cell-based; settings: mean ± SD
Description: as §1

[5] = test system: human cervical carcinoma cells Hela; experiment: MTS anti-proliferative assay, Hela; assay type: cell-based; settings: 48 h, mean ± SD
Description: as §1

[6] = test system: human normal liver cells LO2; experiment: MTS cytotoxicity assay, normal LO2 cells; assay type: cell-based; settings: mean ± SD
Description: as §1

[7] = test system: human normal lung epithelial cells BEAS-2B; experiment: MTS cytotoxicity assay, normal BEAS-2B cells; assay type: cell-based; settings: 48 h, mean ± SD
Description: as §1

[8] = molecular target: T1, DNA topoisomerase I (Topo I) (Bos taurus, UniProt F1MN93); experiment: Topo I inhibitory activity, supercoiled DNA unwinding, agarose gel; assay type: biochemical
T1 construct: purchased Takara Bio Inc
T1 sequence (F1MN93 1-767): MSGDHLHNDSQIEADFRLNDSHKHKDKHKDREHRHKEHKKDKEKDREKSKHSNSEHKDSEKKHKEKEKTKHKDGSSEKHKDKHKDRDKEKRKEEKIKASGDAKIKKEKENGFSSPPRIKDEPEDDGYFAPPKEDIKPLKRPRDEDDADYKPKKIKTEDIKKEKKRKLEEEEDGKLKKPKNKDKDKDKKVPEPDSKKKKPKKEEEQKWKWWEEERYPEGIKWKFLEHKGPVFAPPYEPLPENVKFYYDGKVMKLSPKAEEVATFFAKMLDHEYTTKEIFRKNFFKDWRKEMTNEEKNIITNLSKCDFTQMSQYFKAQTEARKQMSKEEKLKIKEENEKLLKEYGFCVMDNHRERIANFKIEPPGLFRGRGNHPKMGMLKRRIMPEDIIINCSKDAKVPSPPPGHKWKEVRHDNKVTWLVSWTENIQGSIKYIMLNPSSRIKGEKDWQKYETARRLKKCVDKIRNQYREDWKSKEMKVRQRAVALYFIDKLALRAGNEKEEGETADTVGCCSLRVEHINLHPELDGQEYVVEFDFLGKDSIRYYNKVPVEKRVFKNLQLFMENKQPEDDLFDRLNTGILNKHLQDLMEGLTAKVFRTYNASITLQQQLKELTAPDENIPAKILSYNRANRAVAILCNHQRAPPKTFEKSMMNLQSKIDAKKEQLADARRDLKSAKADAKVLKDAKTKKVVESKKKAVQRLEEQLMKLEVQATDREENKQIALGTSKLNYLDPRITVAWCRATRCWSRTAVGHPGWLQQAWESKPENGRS
Source text: DNA Topo I is an important enzyme in all living organisms, and it participates in many cellular metabolic processes, such as replication, transcription, recombination, and repair. DNA Topo I has been established as a molecular target of anticancer drugs. A combined study of synthesis and docking for the anti-cancer activity of novel coumarins concluded that coumarin derivatives are potent cytotoxic agents. […] Currently, discovering novel non-camptothecin inhibitors for DNA Topo I has become an important area of research. Thus, a DNA Topo I inhibitory activity assay was also carried out using the supercoiled DNA unwinding method in this study. […] Therefore, compounds 2d, 2g, and 2i were selected for further quantitative investigation (depicted in Figure 5B). […] This correlates well with the cytotoxicity to HL-60, A-549, and SMMC-7721 cells. Thus, we infer that the anti-proliferative activity of 4-acyloxy derivatives of RA to these three cells may be related to Topo I. Supercoiled […] DNA was used as a substrate to determine the Topo I catalytic activity. Commercial samples of Topo I and pBR322 were obtained from Takara Bio Inc. The buffer solutions were prepared using 500 mM KAc, 200 mM Tris-Ac, 100 mM Mg(Ac)2, and 1 mg/mL BSA. The procedure used for determination of enzyme inhibitory activity was similar to one reported by Xu et al..

Compound: CC[C@@]1(O)C(=O)OCc2c1cc1n(c2=O)Cc2cc3ccccc3nc2-1 [CPT, camptothecin]
IC50 ([1]; Homo sapiens, HL-60, 48 h): 12.2 ± 1.06 µM
IC50 ([2]; Homo sapiens, A549, 48 h): 15.3 ± 1.22 µM
IC50 ([3]; Homo sapiens, SMMC-7721, 48 h): 18.9 ± 4.12 µM
IC50 ([4]; Homo sapiens, HepG2, 48 h): 1.3 ± 0.62 µM
IC50 ([5]; Homo sapiens, HeLa): 0.5 ± 0.08 µM
IC50 ([6]; Homo sapiens, L02, 48 h): 0.03 ± 0.002 µM
IC50 ([7]; Homo sapiens, BEAS-2B): 2.16 ± 0.47 µM

Compound: COC1=c2c(OC(=O)c3ccccc3)c(-c3ccc(OC)cc3)c(=O)oc2=CC2OC(C)(C)C=CC12 (centres unmarked) [Compound 2a, 4-O-Benzoyl-robustic acid]
melting point: 266.4 to 273.4 °C

Compound: COC1=c2c(OC(=O)c3ccc(C(F)(F)F)cc3)c(-c3ccc(OC)cc3)c(=O)oc2=CC2OC(C)(C)C=CC12 (centres unmarked) [Compound 2d, 4-O-(p-Trifluoromethylbenzoyl)robustic acid]
melting point: 225.6 to 228.5 °C

Compound: N.N.[Cl][Pt][Cl] [cisplatin]
IC50 ([1]; 48 h): 14.2 ± 0.56 µM
IC50 ([2]; 48 h): 25.4 ± 1.06 µM
IC50 ([3]; 48 h): 1.32 ± 0.97 µM
IC50 ([4]; 48 h): 10.6 ± 1.4 µM
IC50 [5]: 5.83 ± 0.14 µM
IC50 ([6]; 48 h): < 0.008 µM
IC50 [7]: 57.7 ± 3.1 µM

Second part, led by results:

melting point: 171.5 to 182.3 °C
Compound: COC1=c2c(OC(=O)c3cccs3)c(-c3ccc(OC)cc3)c(=O)oc2=CC2OC(C)(C)C=CC12 (centres unmarked) [Compound 2e, 4-O-Thenoyl robustic acid]

IC50 ([1]; Homo sapiens, HL-60, 48 h): > 100 µM
IC50 ([2]; Homo sapiens, A549, 48 h): > 100 µM
IC50 ([3]; Homo sapiens, SMMC-7721, 48 h): 66.2 ± 5.7 µM
IC50 ([4]; Homo sapiens, HepG2, 48 h): 87.3 ± 2.14 µM
IC50 ([5]; Homo sapiens, HeLa): 65.1 ± 1.27 µM
Topo I inhibitory activity ([8]; gel electrophoresis): moderate inhibitory activities
melting point: 236.8 to 239.6 °C
Compound: COc1ccc(-c2c(OC(=O)c3ccc(F)cc3)c3c(OC)c4c(cc3oc2=O)OC(C)(C)C=C4)cc1 [Compound 2f, 4-O-(p-Fluorobenzoyl)robustic acid]
IC50 ([6]; Homo sapiens, L02, 48 h): > 100 µM
IC50 ([7]; Homo sapiens, BEAS-2B): > 100 µM

melting point: 239.5 to 241.9 °C
Compound: COC1=c2c(OC(=O)c3ccc([N+](=O)[O-])cc3)c(-c3ccc(OC)cc3)c(=O)oc2=CC2OC(C)(C)C=CC12 (centres unmarked) [Compound 2g, 4-O-(p-Nitrobenzoyl)robustic acid]

melting point: 246.9 to 250.2 °C
Compound: CCc1ccc(C(=O)Oc2c(-c3ccc(OC)cc3)c(=O)oc3c2=C(OC)C2C=CC(C)(C)OC2C=3)cc1 (centres unmarked) [Compound 2h, 4-O-(p-Ethylbenzoyl)robustic acid]

melting point: 250.8 to 251.9 °C
Compound: COC1=c2c(OC(=O)c3ccc(Br)cc3F)c(-c3ccc(OC)cc3)c(=O)oc2=CC2OC(C)(C)C=CC12 (centres unmarked) [Compound 2i, 4-O-(4-Bromo-2-fluorobenzoyl) robustic acid]

melting point: 189.9 to 192.1 °C
Compound: COC1=c2c(OC(C)=O)c(-c3ccc(OC)cc3)c(=O)oc2=CC2OC(C)(C)C=CC12 (centres unmarked) [Compound 2j, 4-O-Acetylrobustic acid]

IC50 ([1]; Homo sapiens, HL-60, 48 h): > 100 µM
IC50 ([2]; Homo sapiens, A549, 48 h): > 100 µM
IC50 ([3]; Homo sapiens, SMMC-7721, 48 h): > 100 µM
IC50 ([4]; Homo sapiens, HepG2, 48 h): > 100 µM
IC50 ([5]; Homo sapiens, HeLa): > 100 µM
Topo I inhibitory activity ([8]; concentrations lower than 10 mM): no inhibitory activity was found
Compound: COc1ccc(-c2c(O)c3c(OC)c4c(cc3oc2=O)OC(C)(C)C=C4)cc1 [RA, robustic acid]
IC50 ([6]; Homo sapiens, L02, 48 h): > 100 µM
IC50 ([7]; Homo sapiens, BEAS-2B): > 100 µM
